From the kinase profiling compilation of Christmann-Franck et al. (2016)

Tests used:
Assay in all cases: Caliper, Mobility shift assay off-chip
IKBKB (human) = IKBKB (human) (UniProt O14920)
NEK2 (human) = NEK2 (human) (UniProt P51955)
RPS6KA3 KD1 KD2 (human) = RPS6KA3 KD1 KD2 (human) (UniProt P51812)
TSSK2 (human) = TSSK2 (human) (UniProt Q96PF2)
MAP4K4 (human) = MAP4K4 (human) (UniProt O95819)
AURKB (human) = AURKB (human) (UniProt Q96GD4)
INSR (human) = INSR (human) (UniProt P06213)
LCK (human) = LCK (human) (UniProt P06239)
[1] = tested on: ABL1 (human), P00519 [T315I]
CHEK1 (human) = CHEK1 (human) (UniProt O14757)
DYRK1A (human) = DYRK1A (human) (UniProt Q13627)
RPS6KA1 KD1 KD2 (human) = RPS6KA1 KD1 KD2 (human) (UniProt Q15418)
SYK (human) = SYK (human) (UniProt P43405)
PRKCB1 (human) = PRKCB1 (human) (UniProt P05771)
PRKACA (human) = PRKACA (human) (UniProt P17612)
HCK (human) = HCK (human) (UniProt P08631)
[2] = tested on: FGFR2 (human), P21802 [N549H]
SRC (human) = SRC (human) (UniProt P12931)
[3] = tested on: ABL1 (human), P00519 [H396P]
PAK2 (human) = PAK2 (human) (UniProt Q13177)
TSSK1B (human) = TSSK1B (human) (UniProt Q9BXA7)
GSK3B (human) = GSK3B (human) (UniProt P49841)
ROCK2 (human) = ROCK2 (human) (UniProt O75116)
KDR (human) = KDR (human) (UniProt P35968)
CAMK4 (human) = CAMK4 (human) (UniProt Q16566)
MAPK11 (human) = MAPK11 (human) (UniProt Q15759)
FGFR2 (human) = FGFR2 (human) (UniProt P21802)
PDGFRA (human) = PDGFRA (human) (UniProt P16234)
RAF1 (human) = RAF1 (human) (UniProt P04049)
PRKCE (human) = PRKCE (human) (UniProt Q02156)
PIM1 (human) = PIM1 (human) (UniProt P11309)
PRKD2 (human) = PRKD2 (human) (UniProt Q9BZL6)
BRSK2 (human) = BRSK2 (human) (UniProt Q8IWQ3)
IRAK4 (human) = IRAK4 (human) (UniProt Q9NWZ3)

Sequence of NEK2 (human) (P51955 whole entry, looked up): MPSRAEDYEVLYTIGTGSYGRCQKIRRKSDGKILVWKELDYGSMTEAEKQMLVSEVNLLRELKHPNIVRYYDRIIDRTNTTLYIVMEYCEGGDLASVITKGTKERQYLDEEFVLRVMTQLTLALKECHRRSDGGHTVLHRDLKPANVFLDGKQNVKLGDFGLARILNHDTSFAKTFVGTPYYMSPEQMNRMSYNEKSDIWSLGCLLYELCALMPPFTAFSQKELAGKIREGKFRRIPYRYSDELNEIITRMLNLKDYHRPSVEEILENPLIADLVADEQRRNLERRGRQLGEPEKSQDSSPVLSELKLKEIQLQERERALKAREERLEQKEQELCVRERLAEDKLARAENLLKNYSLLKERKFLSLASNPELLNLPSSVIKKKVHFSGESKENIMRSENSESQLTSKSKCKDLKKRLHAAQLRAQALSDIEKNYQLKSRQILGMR
Sequence of PDGFRA (human) (P16234 whole entry, looked up): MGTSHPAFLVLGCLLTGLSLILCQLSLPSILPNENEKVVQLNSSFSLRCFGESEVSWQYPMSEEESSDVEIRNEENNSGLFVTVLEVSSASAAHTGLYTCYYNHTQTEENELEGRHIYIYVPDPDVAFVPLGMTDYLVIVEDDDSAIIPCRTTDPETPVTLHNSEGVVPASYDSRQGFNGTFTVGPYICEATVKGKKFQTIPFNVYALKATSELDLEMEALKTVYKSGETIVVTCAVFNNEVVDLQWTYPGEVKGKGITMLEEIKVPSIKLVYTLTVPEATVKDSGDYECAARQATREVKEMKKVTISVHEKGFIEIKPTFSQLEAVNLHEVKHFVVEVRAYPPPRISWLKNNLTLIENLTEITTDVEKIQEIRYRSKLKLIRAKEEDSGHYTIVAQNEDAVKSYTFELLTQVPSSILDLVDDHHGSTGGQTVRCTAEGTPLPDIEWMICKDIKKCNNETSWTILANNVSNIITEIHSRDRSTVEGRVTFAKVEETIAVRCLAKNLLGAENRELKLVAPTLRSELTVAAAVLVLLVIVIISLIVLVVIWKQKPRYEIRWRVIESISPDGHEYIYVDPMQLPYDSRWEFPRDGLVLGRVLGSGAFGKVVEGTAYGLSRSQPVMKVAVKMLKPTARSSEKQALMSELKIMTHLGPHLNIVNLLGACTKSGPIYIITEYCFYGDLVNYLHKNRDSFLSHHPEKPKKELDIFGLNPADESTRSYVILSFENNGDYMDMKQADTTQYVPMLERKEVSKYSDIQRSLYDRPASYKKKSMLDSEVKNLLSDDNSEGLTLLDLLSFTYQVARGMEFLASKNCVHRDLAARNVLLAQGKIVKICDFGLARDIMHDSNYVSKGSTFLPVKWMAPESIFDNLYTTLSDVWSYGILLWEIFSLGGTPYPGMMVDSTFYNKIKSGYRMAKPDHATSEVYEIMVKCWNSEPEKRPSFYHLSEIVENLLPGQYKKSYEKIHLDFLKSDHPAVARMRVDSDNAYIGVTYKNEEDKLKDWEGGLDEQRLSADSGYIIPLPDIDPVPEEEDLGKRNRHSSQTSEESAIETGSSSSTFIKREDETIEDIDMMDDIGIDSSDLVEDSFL
Sequence of HCK (human) (P08631 whole entry, looked up): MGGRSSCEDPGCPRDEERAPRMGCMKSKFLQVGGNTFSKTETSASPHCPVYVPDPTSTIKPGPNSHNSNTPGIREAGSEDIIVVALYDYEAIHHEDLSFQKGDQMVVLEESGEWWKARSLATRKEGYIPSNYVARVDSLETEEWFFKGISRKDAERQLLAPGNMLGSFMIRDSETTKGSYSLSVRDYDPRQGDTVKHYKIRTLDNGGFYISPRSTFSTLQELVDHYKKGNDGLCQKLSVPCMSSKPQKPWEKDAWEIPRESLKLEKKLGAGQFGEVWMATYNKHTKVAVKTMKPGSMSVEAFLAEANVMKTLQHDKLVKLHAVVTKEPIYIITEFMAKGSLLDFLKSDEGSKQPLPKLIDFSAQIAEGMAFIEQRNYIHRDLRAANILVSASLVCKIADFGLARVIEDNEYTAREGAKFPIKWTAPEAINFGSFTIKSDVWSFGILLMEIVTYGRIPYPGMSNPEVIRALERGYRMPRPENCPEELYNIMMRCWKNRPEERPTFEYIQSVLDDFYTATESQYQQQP
Sequence of PIM1 (human) (P11309 whole entry, looked up): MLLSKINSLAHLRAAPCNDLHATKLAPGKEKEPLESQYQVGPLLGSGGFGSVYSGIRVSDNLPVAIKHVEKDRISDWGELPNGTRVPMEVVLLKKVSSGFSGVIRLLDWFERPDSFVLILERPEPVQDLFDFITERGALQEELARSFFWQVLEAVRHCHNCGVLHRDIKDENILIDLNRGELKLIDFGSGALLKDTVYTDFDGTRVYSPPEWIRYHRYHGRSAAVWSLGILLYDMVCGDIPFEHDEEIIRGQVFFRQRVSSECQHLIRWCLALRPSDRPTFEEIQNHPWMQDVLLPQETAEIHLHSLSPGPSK
Sequence of INSR (human) (P06213 whole entry, looked up): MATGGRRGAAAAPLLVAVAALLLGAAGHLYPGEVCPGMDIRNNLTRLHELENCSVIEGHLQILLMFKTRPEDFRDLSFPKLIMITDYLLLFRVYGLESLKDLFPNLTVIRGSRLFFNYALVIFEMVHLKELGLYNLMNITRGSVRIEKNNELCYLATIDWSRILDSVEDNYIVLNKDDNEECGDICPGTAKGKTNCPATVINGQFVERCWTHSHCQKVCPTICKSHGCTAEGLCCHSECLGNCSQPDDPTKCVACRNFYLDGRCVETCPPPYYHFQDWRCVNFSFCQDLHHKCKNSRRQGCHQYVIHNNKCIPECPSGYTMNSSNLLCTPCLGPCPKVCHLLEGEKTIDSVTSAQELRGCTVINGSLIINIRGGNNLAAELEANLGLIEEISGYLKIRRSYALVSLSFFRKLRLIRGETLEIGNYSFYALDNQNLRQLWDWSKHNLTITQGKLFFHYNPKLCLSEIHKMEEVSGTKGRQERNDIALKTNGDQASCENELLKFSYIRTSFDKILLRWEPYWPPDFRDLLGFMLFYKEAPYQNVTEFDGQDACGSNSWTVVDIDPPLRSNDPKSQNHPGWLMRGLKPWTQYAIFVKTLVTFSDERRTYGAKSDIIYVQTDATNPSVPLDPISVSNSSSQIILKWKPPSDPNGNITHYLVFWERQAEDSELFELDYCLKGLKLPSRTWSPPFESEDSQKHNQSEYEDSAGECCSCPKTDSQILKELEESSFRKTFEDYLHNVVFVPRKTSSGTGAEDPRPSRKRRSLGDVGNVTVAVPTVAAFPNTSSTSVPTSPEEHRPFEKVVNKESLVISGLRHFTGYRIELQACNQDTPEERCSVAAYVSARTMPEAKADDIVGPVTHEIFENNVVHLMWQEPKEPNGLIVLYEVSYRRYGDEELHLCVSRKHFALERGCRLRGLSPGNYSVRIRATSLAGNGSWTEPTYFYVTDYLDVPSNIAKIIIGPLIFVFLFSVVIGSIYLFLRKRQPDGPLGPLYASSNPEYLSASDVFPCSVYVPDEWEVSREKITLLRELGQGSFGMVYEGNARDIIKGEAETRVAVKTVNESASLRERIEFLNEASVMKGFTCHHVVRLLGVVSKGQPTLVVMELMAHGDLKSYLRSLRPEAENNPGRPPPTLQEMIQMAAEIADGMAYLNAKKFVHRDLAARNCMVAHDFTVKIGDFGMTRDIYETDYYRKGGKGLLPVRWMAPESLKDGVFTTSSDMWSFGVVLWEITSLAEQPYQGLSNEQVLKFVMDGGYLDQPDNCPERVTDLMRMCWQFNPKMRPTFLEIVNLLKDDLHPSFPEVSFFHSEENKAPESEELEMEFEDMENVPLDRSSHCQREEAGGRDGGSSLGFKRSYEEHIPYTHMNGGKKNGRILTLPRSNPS
Sequence of AURKB (human) (Q96GD4 whole entry, looked up): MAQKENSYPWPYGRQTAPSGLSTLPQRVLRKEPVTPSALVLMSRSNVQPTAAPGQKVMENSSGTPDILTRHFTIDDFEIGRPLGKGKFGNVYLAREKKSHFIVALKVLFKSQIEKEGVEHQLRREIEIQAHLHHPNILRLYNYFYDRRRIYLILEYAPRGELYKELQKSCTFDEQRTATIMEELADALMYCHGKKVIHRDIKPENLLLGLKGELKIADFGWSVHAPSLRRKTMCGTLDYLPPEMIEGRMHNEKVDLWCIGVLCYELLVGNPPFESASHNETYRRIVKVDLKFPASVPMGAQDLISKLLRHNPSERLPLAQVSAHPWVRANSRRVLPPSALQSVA
Sequence of SRC (human) (P12931 whole entry, looked up): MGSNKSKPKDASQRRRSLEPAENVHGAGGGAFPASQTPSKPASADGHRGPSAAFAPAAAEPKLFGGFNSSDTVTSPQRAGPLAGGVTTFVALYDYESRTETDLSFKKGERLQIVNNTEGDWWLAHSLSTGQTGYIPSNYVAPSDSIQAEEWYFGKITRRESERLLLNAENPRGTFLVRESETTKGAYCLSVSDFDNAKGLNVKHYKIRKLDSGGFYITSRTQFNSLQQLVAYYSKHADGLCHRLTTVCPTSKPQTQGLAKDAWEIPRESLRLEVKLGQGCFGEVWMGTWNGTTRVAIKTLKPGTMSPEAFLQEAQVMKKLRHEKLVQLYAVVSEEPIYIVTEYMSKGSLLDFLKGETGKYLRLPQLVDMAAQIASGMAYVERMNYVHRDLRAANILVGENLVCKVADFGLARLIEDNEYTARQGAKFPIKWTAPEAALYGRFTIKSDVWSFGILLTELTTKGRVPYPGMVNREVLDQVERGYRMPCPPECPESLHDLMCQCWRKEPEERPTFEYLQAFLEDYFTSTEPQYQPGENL
Sequence of MAPK11 (human) (Q15759 whole entry, looked up): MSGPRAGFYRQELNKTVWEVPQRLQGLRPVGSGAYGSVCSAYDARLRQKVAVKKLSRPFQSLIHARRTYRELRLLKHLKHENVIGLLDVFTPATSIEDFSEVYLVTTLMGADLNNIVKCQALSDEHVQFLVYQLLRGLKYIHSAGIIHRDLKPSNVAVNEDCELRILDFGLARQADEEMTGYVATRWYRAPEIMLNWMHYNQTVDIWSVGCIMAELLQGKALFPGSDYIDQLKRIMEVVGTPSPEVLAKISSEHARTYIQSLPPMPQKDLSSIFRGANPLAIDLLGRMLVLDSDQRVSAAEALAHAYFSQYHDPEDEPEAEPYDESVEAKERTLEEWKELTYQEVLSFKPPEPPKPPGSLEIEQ

O=c1c2cc(CS(=O)(=O)NCc3ccccn3)ccc2ccc2ncc(C3CCNCC3)cc12
inhibition (IKBKB (human); compound 0.01 µM): -0.2%
inhibition (IKBKB (human); compound 0.1 µM): 0.6%
inhibition (NEK2 (human); compound 0.01 µM): -2.6%
inhibition (NEK2 (human); compound 0.1 µM): -2.3%
inhibition (RPS6KA3 KD1 KD2 (human); compound 0.01 µM): -1.1%
inhibition (RPS6KA3 KD1 KD2 (human); compound 0.1 µM): 8.1%
inhibition (TSSK2 (human); compound 0.01 µM): 55.4%
inhibition (TSSK2 (human); compound 0.1 µM): -6.2%
inhibition (MAP4K4 (human); compound 0.01 µM): -8.5%
inhibition (MAP4K4 (human); compound 0.1 µM): -10.7%
inhibition (AURKB (human); compound 0.01 µM): 3.2%
inhibition (AURKB (human); compound 0.1 µM): 17%
inhibition (INSR (human); compound 0.01 µM): -1.4%
inhibition (INSR (human); compound 0.1 µM): -2.5%
inhibition (LCK (human); compound 0.01 µM): -2.9%
inhibition (LCK (human); compound 0.1 µM): 3.3%
inhibition ([1]; compound 0.01 µM): 19.6%
inhibition ([1]; compound 0.1 µM): -2.4%
inhibition (CHEK1 (human); compound 0.01 µM): -2.8%
inhibition (CHEK1 (human); compound 0.1 µM): -6%
inhibition (DYRK1A (human); compound 0.01 µM): 7.6%
inhibition (DYRK1A (human); compound 0.1 µM): -4.3%
inhibition (RPS6KA1 KD1 KD2 (human); compound 0.01 µM): -1.6%
inhibition (RPS6KA1 KD1 KD2 (human); compound 0.1 µM): 13.5%
inhibition (SYK (human); compound 0.01 µM): -4.6%
inhibition (SYK (human); compound 0.1 µM): 6.2%
inhibition (PRKCB1 (human); compound 0.01 µM): 4.1%
inhibition (PRKCB1 (human); compound 0.1 µM): 6.7%
inhibition (PRKACA (human); compound 0.01 µM): 3.2%
inhibition (PRKACA (human); compound 0.1 µM): 0.4%
inhibition (HCK (human); compound 0.01 µM): 2.6%
inhibition (HCK (human); compound 0.1 µM): -2%
inhibition ([2]; compound 0.01 µM): -4.6%
inhibition ([2]; compound 0.1 µM): 3.3%
inhibition (SRC (human); compound 0.01 µM): -3.8%
inhibition (SRC (human); compound 0.1 µM): -4.2%
inhibition ([3]; compound 0.01 µM): 4.8%
inhibition ([3]; compound 0.1 µM): -2.5%
inhibition (PAK2 (human); compound 0.01 µM): 0.1%
inhibition (PAK2 (human); compound 0.1 µM): 3.6%
inhibition (TSSK1B (human); compound 0.01 µM): 7.3%
inhibition (TSSK1B (human); compound 0.1 µM): -5.2%
inhibition (GSK3B (human); compound 0.01 µM): -1.8%
inhibition (GSK3B (human); compound 0.1 µM): -1%
inhibition (ROCK2 (human); compound 0.01 µM): 5.8%
inhibition (ROCK2 (human); compound 0.1 µM): 8.4%
inhibition (KDR (human); compound 0.01 µM): -4.1%
inhibition (KDR (human); compound 0.1 µM): 4.1%
inhibition (CAMK4 (human); compound 0.01 µM): 2.8%
inhibition (CAMK4 (human); compound 0.1 µM): -12.8%
inhibition (MAPK11 (human); compound 0.01 µM): -1.5%
inhibition (MAPK11 (human); compound 0.1 µM): 0.7%
inhibition (FGFR2 (human); compound 0.01 µM): -8.2%
inhibition (FGFR2 (human); compound 0.1 µM): 8.7%
inhibition (PDGFRA (human); compound 0.01 µM): -15.7%
inhibition (PDGFRA (human); compound 0.1 µM): 4.1%
inhibition (RAF1 (human); compound 0.01 µM): 1.4%
inhibition (RAF1 (human); compound 0.1 µM): 0.6%
inhibition (PRKCE (human); compound 0.01 µM): 1.3%
inhibition (PRKCE (human); compound 0.1 µM): -2%
inhibition (PIM1 (human); compound 0.01 µM): -4.8%
inhibition (PIM1 (human); compound 0.1 µM): -6.2%
inhibition (PRKD2 (human); compound 0.01 µM): -6.3%
inhibition (PRKD2 (human); compound 0.1 µM): -5.2%
inhibition (BRSK2 (human); compound 0.01 µM): -1.9%
inhibition (BRSK2 (human); compound 0.1 µM): 4.8%
inhibition (IRAK4 (human); compound 0.01 µM): 19.1%
inhibition (IRAK4 (human); compound 0.1 µM): -1.2%
